Source: patent publication US20250163104A1, “MACROCYCLIC IMMUNOMODULATORS” (priority 2021, published 2025)
Where a SMILES comes first, the peptide text is derived from it. Bridges are numbered along the chain shown (N, C = ends). [ ]: non-standard residue; d: D form. The star is where a group is joined. Phe(4-COOH) = N[C@@H](Cc1ccc(C(=O)O)cc1)C(=O)O; Bip = N[C@@H](Cc1ccc(-c2ccccc2)cc1)C(=O)O; Phe(3-Me) = Cc1cccc(C[C@H](N)C(=O)O)c1; Val(3-OH) = CC(C)(O)[C@H](N)C(=O)O; 3Thi = N[C@@H](Cc1ccsc1)C(=O)O; Cha = N[C@@H](CC1CCCCC1)C(=O)O; Cit = NC(=O)NCCC[C@H](N)C(=O)O; Carboxymethyl = O=C(O)C*; Nle = CCCC[C@H](N)C(=O)O; Orn = NCCC[C@H](N)C(=O)O; Dab = NCC[C@H](N)C(=O)O; Dap = NC[C@H](N)C(=O)O

What follows are compounds tested against T1, human PD-1 / PD-L1-Ig binding on Jurkat cell line over-expressing human PD-1 (Jurkat-PD-1) (Homo sapiens, UniProt Q15116) (assay: Jurkat-PD-1 Cell Binding High-Content Screening Assay (CBA)). Conditions: Jurkat-PD-1 cells, PE-labeled PD-L1-Ig 20 nM final; read-out: Jurkat HPD1_PDL1 IC50.
T1 construct: expressed in transfected cells; host or cells: Jurkat
T1 sequence (Q15116 25-288): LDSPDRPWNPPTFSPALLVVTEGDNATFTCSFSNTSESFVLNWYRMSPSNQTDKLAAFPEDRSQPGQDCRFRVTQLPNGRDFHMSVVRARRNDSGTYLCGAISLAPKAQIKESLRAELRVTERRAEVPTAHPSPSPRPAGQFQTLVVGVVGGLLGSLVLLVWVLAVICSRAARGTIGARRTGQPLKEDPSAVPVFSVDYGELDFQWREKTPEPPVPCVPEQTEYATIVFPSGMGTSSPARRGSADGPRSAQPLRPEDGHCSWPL
Type: cell-based
How it was run: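 Cell-bound PE-labeled PD-L1-Ig (20 nM final, 1 h) measured by high-content imaging after fixation and Hoechst 33342 counterstain. Compound was applied first for 2 h at 37° C. to Jurkat cells over-expressing human PD-1 in DMEM with 10% FCS.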
An IC50 of 12.1 nM was found for CC(C)C[C@@H]1NC(=O)[C@H](Cc2c[nH]c3ccccc23)NC(=O)[C@H](CC(=O)O)NC(=O)[C@H](Cc2ccc(OCC(=O)O)cc2)NC(=O)[C@H](Cc2ccc(OCC(=O)O)cc2)NC(=O)CSC[C@@H](C(=O)NCC(N)=O)NC(=O)[C@H](CO)NC(=O)[C@H](C(C)C)NC(=O)[C@H](CC(C)C)NC(=O)[C@H](CC(N)=O)NC(=O)[C@@H](CC(C)C)NC(=O)[C@H](CN)NC(=O)[C@H](C(C)C)NC(=O)[C@H](Cc2ccc(-c3ccccc3)cc2)NC1=O [Compound 1291] ({CH2CO}-Y(Carboxymethyl)Y(Carboxymethyl)DWL[Bip]V[Dap][dL]NLVSCG-NH2; thioether N-14) in this work.
An IC50 of 3.1 nM was found for Cc1cccc(C[C@@H]2NC(=O)[C@H](CC(=O)O)NC(=O)[C@H](Cc3ccc(C(=O)O)cc3)NC(=O)[C@H](Cc3ccsc3)NC(=O)CSC[C@@H](C(=O)N[C@@H](CCN)C(N)=O)NC(=O)[C@H](CO)NC(=O)[C@H](C(C)(C)O)NC(=O)[C@H](CC3CCCCC3)NC(=O)[C@H](CCN)NC(=O)[C@@H](CC(C)C)NC(=O)[C@H](CCCN)NC(=O)[C@H](Cc3ccc(OCC(=O)O)cc3)NC(=O)[C@H](Cc3ccc(-c4ccccc4)cc3)NC(=O)[C@H](Cc3ccc(OCC(=O)O)cc3)NC2=O)c1 [Compound 2617] ({CH2CO}-[3Thi][Phe(4-COOH)]D[Phe(3-Me)]Y(Carboxymethyl)[Bip]Y(Carboxymethyl)[Orn][dL][Dab][Cha][Val(3-OH)]SC[Dab]-NH2; thioether N-14) in this work.
An IC50 of 64.7 nM was found for CCCC[C@@H]1NC(=O)[C@H](CCCNC(=N)N)NC(=O)[C@@H](CC(C)C)NC(=O)[C@H](CCCN)NC(=O)[C@H]([C@@H](C)CC)NC(=O)[C@H](Cc2ccc(-c3ccccc3)cc2)NC(=O)[C@H](C(C)C)NC(=O)[C@H](Cc2c[nH]c3ccccc23)NC(=O)[C@H](CC(=O)O)NC(=O)[C@H](Cc2ccc(O)cc2)NC(=O)[C@H](Cc2ccccc2)NC(=O)CSC[C@@H](C(=O)N[C@@H](C)C(N)=O)NC(=O)[C@H]([C@@H](C)O)NC(=O)[C@H](C(C)C)NC1=O [Compound 1152] ({CH2CO}-FYDWV[Bip]I[Orn][dL]R[Nle]VTCA-NH2; thioether N-14) in this work.
An IC50 of 10.4 nM was found for CC(C)C[C@H]1NC(=O)[C@H](CCCN)NC(=O)[C@H](CCC(=O)O)NC(=O)[C@H](Cc2ccc(-c3ccccc3)cc2)NC(=O)[C@H](C(C)C)NC(=O)[C@H](Cc2c[nH]c3ccccc23)NC(=O)[C@H](CC(=O)O)NC(=O)[C@H](Cc2ccc(C(=O)O)cc2)NC(=O)[C@H](CN)NC(=O)CSC[C@@H](C(=O)N[C@@H](C)C(N)=O)NC(=O)[C@H]([C@@H](C)O)NC(=O)[C@H](C(C)C)NC(=O)[C@H](CC2CCCCC2)NC(=O)[C@H](CCN)NC1=O [Compound 2159] in this work.
An IC50 of 36.6 nM was found for CC(C)C[C@@H]1NC(=O)[C@H](Cc2c[nH]c3ccccc23)NC(=O)[C@H](CC(=O)O)NC(=O)[C@H](Cc2ccc(O)cc2)NC(=O)[C@H](Cc2ccccc2)NC(=O)CSC[C@@H](C(=O)N[C@@H](C)C(N)=O)NC(=O)[C@H](CO)NC(=O)[C@H](C(C)C)NC(=O)[C@H](CC(C)C)NC(=O)[C@H](CC(N)=O)NC(=O)[C@@H](CC(C)C)NC(=O)[C@H](CCCN)NC(=O)[C@H](CCCNC(N)=O)NC(=O)[C@H](Cc2ccc(-c3ccccc3)cc2)NC1=O [Compound 1234] ({CH2CO}-FYDWL[Bip][Cit][Orn][dL]NLVSCA-NH2; thioether N-14) in this work.
An IC50 of 24.2 nM was found for CCCC[C@@H]1NC(=O)[C@H](Cc2c[nH]c3ccccc23)NC(=O)[C@H](CC(=O)O)NC(=O)[C@H](Cc2ccc(OCC(=O)O)cc2)NC(=O)[C@H](CN)NC(=O)CSC[C@@H](C(=O)N[C@@H](C)C(N)=O)NC(=O)[C@H]([C@@H](C)O)NC(=O)[C@H](C(C)C)NC(=O)[C@H](CC2CCCCC2)NC(=O)[C@H](CCN)NC(=O)[C@@H](CC(C)C)NC(=O)[C@H](CCCN)NC(=O)[C@H](CCC(=O)O)NC(=O)[C@H](Cc2ccc(-c3ccccc3)cc2)NC1=O [Compound 1718] ({CH2CO}-[Dap]Y(Carboxymethyl)DW[Nle][Bip]E[Orn][dL][Dab][Cha]VTCA-NH2; thioether N-14) in this work.
